Data set [1] can be described thus: Peptide delivery to brain cortex of undamaged animals. It is filed as in vivo. The following applies: 3 nmol/g i.v. (retro-orbital), undamaged male mice, sacrificed 30 min after; Fluorescein Avidin D (Fig S5). As for the experimental part: (§1) Vehicle (saline), Bio-TMyc or Bio-TT1Ct (3 nmol/g) were retro-orbitally injected in mice one hour after induction of photothrombotic damage or, alternatively, undamaged animals. In the first case, animals were sacrificed 5 h after damage induction while, the second group was sacrificed 30 min after peptide administration. The details of brain fixation and cryoprotection for peptide visualization and/or immunohistochemistry are provided in the Supplementary material. […]
(§2) Finally, the sa mple s were mounted in Prolong Diamond. The images were acquired using an inverted Zeiss LSM 710 laser confocal microscope (Jena, Germany) with a 40x or 63x Plan-Apochromatic oil immersion objective. Images corre spond to single se ctions and were normalized for eac h colour se para tely and process ed for presenta tion with ImageJ (NIH Image) and Fiji.
(§3) Peptide visualization and immunohistochemis tr y in brain cortex
(§4) For peptide visua liz ation in undamaged or damaged brains, animals were deeply anes thetized and intra cardially perfus ed with cold PBS and 4% paraformalde hyde in PBS. Brains were post-fixed in the sa m e fixative at 4°C for 24 h and cryoprote cted in 30% suc ros e for 48 h at 4°C. […]

Data set [2] can be described thus: Peptide detection in brain cortex after photothrombotic ischemia. Conditions: 3 nmol/g i.v. 1 h after damage, male and female mice sacrificed 5 h post-stroke; Fluorescein Avidin D (Fig 5C). It is filed as in vivo. As for the experimental part:
as §1, §2, §3, §4

The subject of data set [3] is neurons of primary cortical cultures. In words: Neuronal viability (MTT) under NMDA excitotoxicity. In kind it is cell-based, rat. Here is the method: Cultures were prepared from cerebral cortex of 18-day-old Wistar rat embryos, both genders indistinctly included. Unless otherwise indicated, glial growth was inhibited after 7 days in vitro (DIVs), experimental treatments taking place after 12 DIVs. These cultures present a high percentage of neurons, combined with glial cells, mostly astrocytes. To induce excitotoxicity, cultures were incubated with NMDA (100 µM) and its co-agonist glycine (10 µM), herein denoted simply as NMDA, which induce a strong excitotoxic response in mature neurons but have no effect on astrocyte viability,[47]. When indicated, cultures were preincubated for 30 min with indicated concentrations of Tat-derived CPPs before NMDA treatment, peptides being kept in the medium along treatment. Total cell or neuronal viability assessment was established by the thiazolyl blue formazan (MTT) reduction assay. Further details are provided as Supplementary material. […]
skull for 10 min. Br ain injury encompas se s damage to vas cular endothelium, platelet activation, and subs equent microvascula r thrombotic occlus ion of the irradiate d region. The ar eas underneath this ste reotaxic position that result irradiate d ar e the prima ry motor cortex and the prima ry soma tos ens ory cortex (hindlimb and forelimb). Once completed surgery, the incision was sutured, and mice were allowed to recover.
For neuroprote ction experiments, a single dose (3 nmol/g) of peptides TMyc or TT1Ct (> 95% purity; GenScript), solubilized as 2.5 mM solutions in 0.9% NaC l, we retro-orbita lly injected 1 h af ter damage initiation. In order to improve their plas ma sta bility, thes e peptides ar e N- and C-ter modifie d by, respec tive ly, ace tyl and amide groups. Mi c e were not subje cted to other procedures before isc hemia and were naive to drug or peptide treatment. Animals were randomly allocated to the experimental groups and the resea rc hers doing the experiments were blind respec t to treatment. There was not a previous es tima tion of sa mple si z e and experiments were independently car r ied out as indicated. Twenty-four hours af ter damage induction, animals completed the beam walking test and were subs equently sa cri f i ced by cervical disloca tion to meas ure the infarc t volume, as indicated below. Be fore that, brains were se ctioned into se ri al 1-mm-thick coronal sl i ce s using a mouse brain matrix (Stoe lting, Wood Dale, IL, USA), and se ctions were completely sta ine d with 2% TTC at room temperature to visua liz e the cortical infarc ts . For immunohistochemis try, animals were deeply anes thetized 5 or 24 h af ter brain damage and intra cardially perfus ed with cold PBS and 4% paraformalde hyde in PBS as indicated below.
Primary cultures of rat cor tic al neurons to study in vitro excitotoxicity The diss ected cerebral cortices of Wis ta r rat embryos (E18), both genders included, were mechanic ally diss ociated in culture medium (Minimum Esse ntia l Me dium, ME M, Life Technologies) follow ed by se eding of the cell sus pens ion at a dens ity of 1.1x10^6 cells /ml, prepared in the sa m e medium supple me nted with 22.2 mM glucos e, 0.1 mM glutamax, 5% foetal bovine se rum (FBS), 5% donor horse se rum (HS), 100 U/ml penicillin and 100 µg/ml streptomycin. Be fore se eding, the plates were treated overnight at 37°C with 100 µg/ml poly-L-lysine and 4 µg/ml laminin. The cells were incubated at 37°C in an atmosphe re of 5% CO2 and 95% humidity. Generally, glial growth was inhibited af ter 7 days in vitro (DIV s) by adding 10 µM 5 cytos ine β-D-arabinofuranos ide (AraC) and experimental treatments took place af ter 12 DIVs. Excitotoxicity was induced by incubation with NM DA (100 µM) and glycine (10 µM) for the indicated times. As indicated, cultures were preincubated with Tat-derived CP P s before […]
Mi c e had to walk through a narrow beam (1 m × 1 cm × 1 cm) placed 50 cm above the tabletop, going from an aversive stimulus (60-W light bulb) to a black goal box with nes ting material. […]

The nature of data set [4]: Infarct volume after photothrombotic permanent ischemia. It is filed as in vivo, mice. Conditions: 24 h, TTC, relative to hemisphere volume. As for the experimental part: Permanent focal ischemia was induced in cerebral cortex of adult male and female mice by microvascular photothrombosis as described with modifications. Brain injury involves vascular endothelium damage and platelet activation, followed by microvascular thrombotic occlusion of a particular region selected for illumination using a stereotaxic frame. Coordinates were +0.2 AP, +2 ML relative to Bregma and damaged area corresponded to primary motor and somatosensory cortex. For neuroprotection, a single dose (3 nmol/g) of peptides TMyc or TT1Ct (see below) was administered 1 h after damage initiation. Further details of the procedures, including measurement of infarct volume and evaluation of motor coordination and balance, are detailed as Supplementary material.
Antibodies, chemica ls and recombinant proteins, cell-penetrating peptides , prime rs , commercial as says , experimental models, recombinant DNAs and software ar e des cribe d in the Table S1, included as Supplementary material.
Animal procedures were performed follow ing Europea n Union Directive 2010/63/ EU and were approved by the CS I C and Comunidad de Ma drid (Ref PROEX 276.6/20) ethics committees.
Hous ing facilities were approved by Comunidad de Ma drid (#ES 280790000188) and conform to official regulations. Animals had sta ndard health and immune sta tus and were looked af ter by profes sional caretake rs daily. Ma l e and female mice were kept in groups of up to five in sta ndard IVC cage s while 1–2 pregnant rats occupied sta ndard cage s, always containing bedding and nes ting materials. Animals were under controlled lighting conditions (12 h light cycles ), relative humidity and temperature. Irradiated food and water were provided ad libitum.
We trie d to minimiz e animal suffering and reduce the number of sa cri f i ced animals .
Mi c e model of isc he mia by microv ascular photothr ombosis to study in vivo excitotoxicity This model of permanent focal isc hemia mimics embolic or thrombotic occlus ion of sm a ll ar ter ie s, which is freque ntly found in human stroke, and caus es a focal brain damage with histological and MR I corre lations to human patterns. The procedure was as previously des cribe d with some modific ations . Ma l e and female Ba lb/c OlaHsd mice (23–31 g; 10–16 weeks of age; Envigo Rms , Spain S.L.) were allowed to acc limatize to our facilities for at least 1 week af ter delivery, before isc hemic induction. They were kept with the sa m e cage mates, and daily examined to chec k their health sta tus . Mi c e were anes thetized with isoflurane (5% for induction, 2% for maintenance in oxygen; Abbot Labora tories , Ma drid, Spain) and then placed in a ste reotaxic frame (Naris hige Group, Tokyo, Ja pan). Body temperature was maintained at 36–37°C using a se l f-regulating heating blanket (Cibertec, Ma drid, Spain). A midline sc al p incision was made, the skull was expos ed, and both Bregma and Lambda points were identifie d.
A cold- light (Sc hott KL 2500 LCD; Schott Glas s, Ma inz, Germany) with a fibre optic bundle of 1.5 mm in diameter was centred using a micromanipula tor on the right side , at 0.2 mm anterior and 2.0 mm lateral (+0.2 AP, +2 ML ) relative to Bregma. […] Five minutes later, the brain was illumina ted (600 lms, 3,000 K) through the intact […]
skull for 10 min. Br ain injury encompas se s damage to vas cular endothelium, platelet activation, and subs equent microvascula r thrombotic occlus ion of the irradiate d region. The ar eas underneath this ste reotaxic position that result irradiate d ar e the prima ry motor cortex and the prima ry soma tos ens ory cortex (hindlimb and forelimb). Once completed surgery, the incision was sutured, and mice were allowed to recover. […]

The nature of data set [5]: Beam walking test after photothrombotic ischemia. The following applies: contralateral hind paw slips, beam walking 24 h after insult, 3 nmol/g i.v. 1 h after damage, mean ± SEM, n = 10-12. In kind it is in vivo, mice.

Experimental findings from paper PMC11984388, “A brain-accessible peptide modulates stroke inflammatory response and neurotoxicity by targeting BDNF-receptor TrkB-T1 specific interactome” (Theranostics, 2025) are described below.

Residues, ends and D or L forms follow the SMILES beside them. *: point of attachment. Biotin = O=C1N[C@H]2[C@H](CS[C@H]2CCCCC(=O)*)N1

Take `CC[C@H](C)[C@H](NC(=O)[C@H](CCCCN)NC(=O)[C@H](Cc1c[nH]cn1)NC(=O)[C@H](Cc1ccccc1)NC(=O)[C@H](CC(C)C)NC(=O)[C@@H](NC(=O)[C@H](Cc1ccccc1)NC(=O)[C@@H]1CCCN1C(=O)[C@@H]1CCCN1C(=O)[C@H](CCCNC(=N)N)NC(=O)[C@H](CCCNC(=N)N)NC(=O)[C@H](CCCNC(=N)N)NC(=O)[C@H](CCC(N)=O)NC(=O)[C@H](CCCNC(=N)N)NC(=O)[C@H](CCCNC(=N)N)NC(=O)[C@H](CCCCN)NC(=O)[C@H](CCCCN)NC(=O)[C@H](CCCNC(=N)N)NC(=O)CNC(=O)[C@H](Cc1ccc(O)cc1)NC(=O)CCCC[C@@H]1SC[C@@H]2NC(=O)N[C@@H]21)C(C)C)C(=O)N1CCC[C@H]1C(=O)N[C@@H](CC(C)C)C(=O)N[C@@H](CC(=O)O)C(=O)NCC(N)=O` [Bio-TT1Ct] (Biotin-YGRKKRRQRRRPPFVLFHKIPLDG-NH2): the “Crossing of the BBB and delivery to cortical cells” value in data set [1] is “able to cross the BBB and efficiently reach most cortical cells in 30 min”. In data set [2], the “Time of peptide detection in brain cortex after administration” value was “at least 4 h”.

Consider “Ac-YGRKKRRQRRRAEEQKLISEEDLLR-NH2 [TMyc, reference compound]”, for which the Neuronal viability is reported as 36% in data set [3] (CPPs 0: peptide and NMDA (100 µM) at the same time, viability after 4 h of excitotoxicity, relative to untreated cells (100%), mean, n = 4-8 (Fig S4)); 37% in data set [3] (CPPs 30: peptide added 30' post-NMDA (100 µM), viability after 4 h of excitotoxicity, relative to untreated cells (100%), mean, n = 4-8 (Fig S4)); 37% in data set [3] (CPPs 60: peptide added 60' post-NMDA (100 µM), viability after 4 h of excitotoxicity, relative to untreated cells (100%), mean, n = 4-8 (Fig S4)); 13 ± 9% in data set [3] (dose-response experiment (Fig 3B): peptide 15 µM preincubated 30 min, NMDA 2 h, mean ± SEM, n = 8). Further, the “Infarct volume (%)” value in data set [4] (female mice, 3 nmol/g i.v. 1 h after damage, mean, n = 9-10) turned out to be 15 ± 2%; in data set [4] (male + female mice, 3 nmol/g i.v. 1 h after damage induction, mean ± SEM, n = 19, n = 20), 17 ± 2%; in data set [4] (male mice, 3 nmol/g i.v. 1 h after damage, mean, n = 9-10), 20 ± 1%. In addition, the results for the Number of slips in data set [5] (female mice) and in data set [5] (male mice) were 5 ± 1 and 10 ± 1, respectively.
